{
  "source": "patent US4617187A",
  "about": "“Therapeutic method for treating radiation ulcers” (Eisai Co., Ltd., priority 1983, dated 1986)",
  "key": {"skin [1]": {"test_system": "skin", "assay": "Primary skin irritation test", "format": "in vivo", "conditions": "1% in Squalane"}, "skin [2]": {"test_system": "skin", "assay": "Cumulative skin irritation test", "format": "in vivo", "conditions": "1% in Squalane"}, "Blepharoirritation test": {"assay": "Blepharoirritation test", "format": "in vivo", "conditions": "1% in Squalane"}, "skin [3]": {"test_system": "skin", "assay": "Phototoxicity test", "format": "in vivo"}, "skin [4]": {"test_system": "skin", "assay": "Challenge test (Adjuvante & Patch Method)", "format": "in vivo", "conditions": "Induction: 5% in Acetone", "from_the_text": "|Challenge Induction: 5% Acetone"}, "skin [5]": {"test_system": "skin", "assay": "Photochallenge (optical challenge) test (Adjuvante Strip method)", "format": "in vivo", "conditions": "Induction: 10% in Acetone", "from_the_text": "|Photo- Induction: 10% Acetone"}, "skin [6]": {"test_system": "skin", "assay": "Patch test", "format": "in vivo", "conditions": "1% in Squalane"}, "Wistar rats [7]": {"test_system": "Wistar rats", "assay": "Subacute toxicity, peroral, rats", "format": "in vivo", "conditions": "peroral 40, 200 and 1,000 mg/kg/day, 5 weeks, male and female Wistar rats", "description": "(§1) Ubidecarenone was perorally administered at 40, 200 and 1,000 mg/kg/day to male and female Wistar rats continuously over a period of 5 weeks and also at 60 and 600 mg/kg/day to male and female rabbits continuously over a period of 23 days."}, "rabbits": {"test_system": "rabbits", "assay": "Subacute toxicity, peroral, rabbits", "format": "in vivo", "conditions": "peroral 60 and 600 mg/kg/day, 23 days, male and female rabbits", "description": "as §1"}, "Wistar rats [8]": {"test_system": "Wistar rats", "assay": "Chronic toxicity, peroral, rats", "format": "in vivo", "conditions": "forced peroral 6, 60 and 600 mg/kg/day, 26 weeks, female and male Wistar rats", "description": "Ubidecarenone was forcedly and perorally administered at 6, 60 and 600 mg/kg/day to female and male Wistar rats continuously over a straight period of 26 weeks."}, "radiation ulcer": {"test_system": "radiation ulcer", "assay": "Case 2: treatment of radiation ulcer of lower abdomen after cervical cancer radiation", "format": "in vivo, patient", "from_the_text": "This patient was subjected to postoperative radiation for the treatment of cervical cancer 18 years before. […] In the Case, the hyperbaric oxygen therapy, zinc sulfate, injectable glutathione, injectable intaserine and Bendazac ointment were applied intermittently in combination. […] Thus, the coating of a therapeutic preparation to be described in Example 1, which pertains to this invention, was initiated."}, "skin [9]": {"test_system": "skin", "assay": "Stability and irritation when applied to the skin (general statement)"}, "radiation ulcers [10]": {"test_system": "radiation ulcers", "assay": "Treatment of radiation ulcers (general statement)", "format": "in vivo", "conditions": "administration to an ulcerated site"}, "[11]": {"conditions": "cited from earlier work"}, "cardiac muscle": {"test_system": "cardiac muscle", "conditions": "known action, cited from earlier work"}, "radiation ulcers [12]": {"test_system": "radiation ulcers", "assay": "Case 1: treatment of ulcer in irradiated chest wall after breast cancer", "format": "in vivo, patient", "conditions": "Case 1, after radiotherapy 40 Gy with oily bleomycin and carmofur ointment; peroral zinc sulfate and injection of intaserine to facilitate wound healing", "from_the_text": "Person, The patient underwent a surgery on […] left breast cancer. It recurred in their left chest wall seven years later, resulting in the formation of a carcinomatous ulcer. This carcinomatous ulcer became resistant to the cryosurgery and carcinostatic chemotherapy, leading to need for the radiotherapy. The patient was exposed to a total radiation dose of 40 Gy while using oily bleomycin and carmofur ointment in combination with a view toward enhancing the effects of the radiotherapy. […] However, they fell down accidently at this stage and the wound was traumatized and ulcerated again. Thus, cythocrome c was injected and at the same time, Bendazac ointment was applied. […] At this stage, the coating of a therapeutic preparation to be described in Example 1, which pertains to the present invention, was started."}, "[13]": {"conditions": "Case 2, prior treatment applied intermittently in combination, with hyperbaric oxygen therapy"}},
  "note": "“Also recorded” adds a separate entry of the source.",
  "data": [
    {"smiles": "COC1=C(OC)C(=O)C(C/C=C(\\C)CC/C=C(\\C)CC/C=C(\\C)CC/C=C(\\C)CC/C=C(\\C)CC/C=C(\\C)CC/C=C(\\C)CC/C=C(\\C)CC/C=C(\\C)CCC=C(C)C)=C(C)C1=O", "note": "[Ubidecarenone]", "values": [
      {"measurement": "Primary irritation, Conclusion", "setting": "skin [1]", "value": "Little skin irri-"},
      {"measurement": "Primary irritation, Results", "setting": "skin [1]", "value": 0.1},
      {"measurement": "Cumulative skin irritation, Conclusion", "setting": "skin [2]", "value": "Little skin irri-"},
      {"measurement": "Cumulative skin irritation, Results", "setting": "skin [2]", "value": 0.3},
      {"measurement": "Blepharoirritation, Conclusion", "setting": "Blepharoirritation test", "value": "Little blepharo-"},
      {"measurement": "Phototoxicity, Conclusion", "setting": "skin [3]; 1% in Squalane", "value": "Little phototoxicity"},
      {"measurement": "Phototoxicity, Conclusion", "setting": "skin [3]; 10% in Squalane", "value": "Little phototoxicity"},
      {"measurement": "Challenge, Conclusion", "setting": "skin [4]; challenge 1% in Acetone", "value": "Little challenge"},
      {"measurement": "Challenge, Results", "setting": "skin [4]; challenge 1% in Acetone", "value": "0/10"},
      {"measurement": "Challenge, Conclusion", "setting": "skin [4]; challenge 5% in Acetone", "value": "Little challenge"},
      {"measurement": "Challenge, Results", "setting": "skin [4]; challenge 5% in Acetone", "value": "0/10"},
      {"measurement": "Photochallenge, Conclusion", "setting": "skin [5]; challenge 10% in Acetone", "value": "Little photo-"},
      {"measurement": "Photochallenge, Results", "setting": "skin [5]; challenge 10% in Acetone", "value": "0/5"},
      {"measurement": "Photochallenge, Conclusion", "setting": "skin [5]; challenge conc. 0.5 in Acetone", "value": "Little photo-"},
      {"measurement": "Photochallenge, Results", "setting": "skin [5]; challenge conc. 0.5 in Acetone", "value": "0/5"},
      {"measurement": "Photochallenge, Conclusion", "setting": "skin [5]; challenge conc. 1 in Acetone", "value": "Little photo-"},
      {"measurement": "Photochallenge, Results", "setting": "skin [5]; challenge conc. 1 in Acetone", "value": "0/5"},
      {"measurement": "Photochallenge, Conclusion", "setting": "skin [5]; challenge conc. 2 in Acetone", "value": "Little photo-"},
      {"measurement": "Photochallenge, Results", "setting": "skin [5]; challenge conc. 2 in Acetone", "value": "0/5"},
      {"measurement": "Photochallenge, Conclusion", "setting": "skin [5]; challenge conc. 5 in Acetone", "value": "Little photo-"},
      {"measurement": "Photochallenge, Results", "setting": "skin [5]; challenge conc. 5 in Acetone", "value": "0/5"},
      {"measurement": "Patch test, Conclusion", "setting": "skin [6]", "value": "Little skin irri-"},
      {"measurement": "Patch test, Results", "setting": "skin [6]", "value": "0/54"},
      {"measurement": "general appearance, blood, urine test and morphological observation (visual and histological) vs control", "setting": "Wistar rats [7]", "value": "No differences were observed"},
      {"measurement": "general appearance, blood, urine test and morphological observation (visual and histological) vs control", "setting": "rabbits", "value": "No differences were observed"},
      {"measurement": "general appearance, blood, urine test and morphological observation (visual and histological) vs control", "setting": "Wistar rats [8]", "value": "no differences were observed"},
      {"measurement": "change of the ulcer", "setting": "radiation ulcer; Case 2, oral ubidecarenone therapy, 2 months", "value": "no change was observed as to the ulcer"},
      {"measurement": "irritation to the skin", "setting": "skin [9]", "value": "little irritation to the skin"},
      {"measurement": "stability when applied to the skin", "setting": "skin [9]", "value": "good stability"},
      {"measurement": "curing of radiation ulcers", "setting": "radiation ulcers [10]", "value": "excellent curing results; also recorded: radiation ulcers can be successfully cured"},
      {"measurement": "solubility in oil", "setting": "[11]; oil", "value": "oil-soluble"},
      {"measurement": "solubility in water or methanol", "setting": "[11]; water or methanol", "value": "hardly soluble"},
      {"measurement": "ATP-yielding function", "setting": "cardiac muscle; cardiac muscle in an ischemic state", "value": "maintain the ATP-yielding function at a high level even when the cardiac muscle is in an ischemic state"},
      {"measurement": "disorders of ischemic cardiac muscle tissue", "setting": "cardiac muscle", "value": "can reduce disorders, which the tissue of ischemic cardiac muscle would develop"},
      {"measurement": "drop of heart contraction function", "setting": "cardiac muscle", "value": "improve the drop of heart contraction function"},
      {"measurement": "percentage oxygen utilization of cardiac muscle", "setting": "cardiac muscle", "value": "can improve the percentage oxygen utilization of cardiac muscle"}
    ]},
    {"smiles": "N[C@@H](CCC(=O)N[C@@H](CS)C(=O)NCC(=O)O)C(=O)O", "note": "[glutathione]", "values": [
      {"measurement": "change of the ulcer", "setting": "radiation ulcer; [13]", "value": "the ulcer was not improved"}
    ]},
    {"smiles": "O=S(=O)([O-])[O-].[Zn+2]", "note": "[zinc sulfate]", "values": [
      {"measurement": "ulcer outcome", "setting": "radiation ulcers [12]", "value": "the ulcer became cancer-free and an eschar was produced"},
      {"measurement": "change of the ulcer", "setting": "radiation ulcer; [13]", "value": "the ulcer was not improved"}
    ]}
  ]
}
